Measurements taken from patent US7855205B2, “Pyrimidinyl substituted fused-pyrrolyl compounds useful in treating kinase disorders” (Janssen Pharmaceutica NV, priority 2004, dated 2010).

Key:
[1] = target: T1, CDK1:Cyclin-B (Homo sapiens, UniProt P06493); assay: CDK1 Screening Assay; assay type: biochemical; settings: 33P-γ-ATP incorporation, 10 μM ATP
T1 construct: purchased New England Biolabs, Beverly, Mass; 6020; host or cells: insect cells
Method: (§1) A kinase reaction mixture was prepared containing 50 mM Tris-HCl pH=8, 10 mM MgCl2, 0.1 mM […], 1 mM DTT, 10 μM ATP, 0.025 μM biotinylated histone-HI peptide substrate and […] per well ^33P-γ-ATP (2000-3000 Ci/mmol). 70 μL of the kinase reaction mixture was dispensed into the well of a streptavidin coated FlashPlate™ (Cat. # SMP103, NEN, Boston, Mass.). Then 1 μL of test compound stock in 100% DMSO was added to the wells resulting in a final concentration of 1% DMSO in the reaction with a 100 μL final reaction volume.
(§2) The CDK1:Cyclin-B protein was then diluted in 50 mM Tris-HCl pH=8.0, 0.1% BSA at a concentration of 1 ng per μL and 30 μL (30 ng enzyme per test well) was added to each well to initiate the reaction. The reaction was incubated for one hour at 30° C. At the end of the 1 h incubation, the reaction was terminated by aspirating the mixture from the plate and washing the wells twice with PBS containing 100 mM EDTA. The histone-H1 biotinylated peptide substrate became immobilized on the Flashplate™ and the incorporation of ^33P-γ-ATP was measured by reading the plate on a scintillation counter. Inhibition of the enzymatic activity of CDK1 was measured by observing a reduced amount of ^33P-γ-ATP incorporated into the immobilized peptide.
The CDK1 used was isolated from insect cells expressing both the human CDK1 catalytic subunit and its positive regulatory subunit cyclin B (New England Biolabs, Beverly, Mass., Cat. #6020).
(§3) • VEGF-R2, HER2 and (Biotin)[…]-Amide • RET kinases • CDK1 (Biotin)[…]-Amide • Aurora-A kinase Biotin-[…]-Amide

[2] = target: T2, VEGF-R2 (Rattus norvegicus, UniProt O08775); assay: VEGF-R2 Screening Assay; assay type: biochemical; settings: 33P-γ-ATP incorporation, 10 μM ATP
T2 construct: polyhistidine (N)
Method: as §2, with “Then 1 μL of test compound stock in 100% DMSO was added to the wells resulting in a final concentration of 1% DMSO in the reaction with a 100 μL final reaction volume. The CDK1:Cyclin-B” for “The CDK1:Cyclin-B”, “immobilized peptide. The VEGF-R kinase assay was carried out using the CDK kinase assay procedure except that the enzyme was replaced with the VEGF-R2 fusion protein containing a polyhistidine tag at the N-terminus followed by amino acids 786-1343 of the rat VEGF-R2 kinase domain (GenBank Accession #U93306).” for “immobilized peptide.”

[3] = target: T3, Aurora-A (Mus musculus, UniProt P97477); assay: Aurora-A Screening Assay; assay type: biochemical, murine; settings: 33P-γ-ATP incorporation, 10 μM ATP
T3 construct: made in house; host or cells: sf9 insect cells
T3 sequence (P97477 1-395): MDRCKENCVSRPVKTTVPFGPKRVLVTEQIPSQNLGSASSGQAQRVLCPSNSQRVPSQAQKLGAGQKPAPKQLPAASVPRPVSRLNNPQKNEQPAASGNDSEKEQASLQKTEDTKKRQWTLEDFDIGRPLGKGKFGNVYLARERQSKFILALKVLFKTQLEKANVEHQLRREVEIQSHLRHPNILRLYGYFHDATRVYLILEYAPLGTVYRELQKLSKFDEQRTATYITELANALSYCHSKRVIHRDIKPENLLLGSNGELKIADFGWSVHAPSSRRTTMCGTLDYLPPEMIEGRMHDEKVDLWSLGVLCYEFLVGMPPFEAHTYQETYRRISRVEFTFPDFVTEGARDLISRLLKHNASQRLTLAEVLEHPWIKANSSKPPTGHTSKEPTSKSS
Method: as §1, §2
The Aurora-A kinase assay was carried out using the CDK kinase assay procedure except that the enzyme was replaced with the full length protein encoding the murine Aurora-A (Accession# GB BC014711) expressed and purified from sf9 insect cells.
as §3

[4] = test system: HeLa cervical adenocarcinoma; assay: Inhibition of cell proliferation (14C-thymidine incorporation), HeLa; assay type: cell-based; settings: Homo sapiens;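 further: HeLa cells in 96-well scintillating plates, compound for 24 h then 24 h more with 14C-thymidine, counting label built into new DNA against DMSO-only control wells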
[5] = test system: HCT-116 colon carcinoma; assay: Inhibition of cell proliferation (14C-thymidine incorporation), HCT-116; assay type: cell-based; settings: Homo sapiens, HCT-116, HCT116
Method: (§4) The ability of a test compound to inhibit the proliferation of cell growth was determined by measuring incorporation of ^14C-labelled thymidine into newly synthesized DNA within the cells. This method was used on cell lines derived from carcinomas originating from several tissues such as HeLa cervical adenocarcinoma (American Type Culture Collection (ATCC), Virginia, Cat. #CCL-2), A375 malignant melanoma (ATCC CRL-1619), HCT-116 colon carcinoma (CCL-247). In this way the effect of a compound on cell growth of cells with many different phenotypes can be determined. Cells were trypsinized and counted and 3000-8000 cells were added to each well of a 96-well CytoStar tissue culture treated scintillating microplate (Amersham #RPNQ0160) in complete medium in a volume of 100 μL. Cells were incubated for 24 hours in complete medium at 37° C. in an atmosphere containing 5% CO2.
(§5) Next, 1 μL of test compound in 100% DMSO was added to the wells of the plate. DMSO only was added to control wells. Cells were incubated for 24 more hours in complete medium at 37° C. in an atmosphere containing 5% CO2. Methyl ^14C-thymidine 56 mCi/mmol (NEN #NEC568 or Amersham #CFA532) was diluted in complete medium and 0.2 uCi/well was added to each well of the CytoStar plate in a volume of 20 μl. The plate was incubated for 24 hours at 37° C. plus 5% CO2 in drug plus ^14C-thymidine. The contents of the plate discarded into a ^14C radioactive waste container by inverting the plate and the plate was washed twice with 200 μL PBS.
(§6) 200 μL of PBS is added to each well. The top of the plate was sealed with a transparent plate sealer and a white plate backing sealer (Packard #6005199) was applied to the bottom of the plate. The degree of methyl ^14C-thymidine incorporation was quantified on a Packard Top Count.

[6] = test system: A375 malignant melanoma; assay: Inhibition of cell proliferation (14C-thymidine incorporation), A375; assay type: cell-based, human; settings: Homo sapiens, A-375
Method: as §4, §5, §6

T1 sequence (P06493 whole entry): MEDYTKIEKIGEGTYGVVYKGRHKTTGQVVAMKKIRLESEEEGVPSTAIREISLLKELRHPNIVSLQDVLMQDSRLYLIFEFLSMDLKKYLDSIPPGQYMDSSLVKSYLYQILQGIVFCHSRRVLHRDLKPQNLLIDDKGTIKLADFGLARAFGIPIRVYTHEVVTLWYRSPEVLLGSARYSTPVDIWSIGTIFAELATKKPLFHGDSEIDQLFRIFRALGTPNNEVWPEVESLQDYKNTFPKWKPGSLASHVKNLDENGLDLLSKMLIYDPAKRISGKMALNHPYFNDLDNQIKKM
T1 sequence (P14635 whole entry partner): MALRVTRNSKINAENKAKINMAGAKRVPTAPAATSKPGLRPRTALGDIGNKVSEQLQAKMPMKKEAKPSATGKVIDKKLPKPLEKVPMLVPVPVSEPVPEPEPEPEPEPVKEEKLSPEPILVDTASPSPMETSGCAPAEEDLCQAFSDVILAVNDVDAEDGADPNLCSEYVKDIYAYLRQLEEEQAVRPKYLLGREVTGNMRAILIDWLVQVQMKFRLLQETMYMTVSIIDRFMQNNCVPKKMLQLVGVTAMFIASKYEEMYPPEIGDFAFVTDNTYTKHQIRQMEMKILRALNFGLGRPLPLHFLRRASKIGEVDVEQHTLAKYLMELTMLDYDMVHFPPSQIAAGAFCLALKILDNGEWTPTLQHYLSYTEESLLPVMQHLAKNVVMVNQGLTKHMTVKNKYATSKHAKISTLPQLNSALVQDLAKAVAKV
T2 sequence (O08775 786-1343): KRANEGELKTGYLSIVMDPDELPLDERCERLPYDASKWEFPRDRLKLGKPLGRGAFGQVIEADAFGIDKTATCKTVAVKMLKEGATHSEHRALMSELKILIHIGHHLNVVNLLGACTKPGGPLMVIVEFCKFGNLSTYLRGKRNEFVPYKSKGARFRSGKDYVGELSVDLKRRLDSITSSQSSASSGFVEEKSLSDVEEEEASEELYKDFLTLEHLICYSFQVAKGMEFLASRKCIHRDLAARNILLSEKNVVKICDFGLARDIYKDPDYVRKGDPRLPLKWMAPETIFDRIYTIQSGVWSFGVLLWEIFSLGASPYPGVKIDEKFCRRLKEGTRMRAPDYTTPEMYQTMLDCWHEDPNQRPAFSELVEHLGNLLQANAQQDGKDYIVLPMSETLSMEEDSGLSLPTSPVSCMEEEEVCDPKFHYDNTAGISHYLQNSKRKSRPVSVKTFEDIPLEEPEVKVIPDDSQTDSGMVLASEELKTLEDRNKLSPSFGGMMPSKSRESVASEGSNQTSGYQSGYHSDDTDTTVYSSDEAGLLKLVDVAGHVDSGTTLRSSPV

Q: Which results are given for `c1cnc2[nH]cc(-c3ccnc(NC4CCCCCC4)n3)c2c1` [Cpd 15, Cycloheptyl-[4-(1H-pyrrolo[2,3-b]pyridin-3-yl)-pyrimidin-2-yl]-amine]?
A: IC50 [1]: 0.012 µM; IC50 [2]: 2.11 µM; IC50 [3]: 0.166 µM; IC50 [4]: 0.0082 µM; IC50 [5]: 0.00756 µM; IC50 [6]: 4.67 nM

Q: Which results are given for `c1cnc2[nH]cc(-c3ccnc(N[C@@H]4CC5CCC4C5)n3)c2c1` (stereo partly drawn) [Cpd 58, (2R)-Bicyclo[2.2.1]hept-2-yl-[4-(1H-pyrrolo[2,3-b]pyridin-3-yl)-pyrimidin-2-yl]-amine]?
A: IC50 [1]: 0.109 µM; IC50 [2]: 1.54 µM; IC50 [3]: 0.566 µM; IC50 [4]: 0.514 µM; IC50 [5]: 0.222 µM; IC50 [6]: 277 nM

Q: What does the source list for `Cc1cc(CCN(C)C)ccc1Nc1nccc(-c2c[nH]c3ncccc23)n1` [Cpd 46]?
A: IC50 [1]: 0.0016 µM; IC50 [2]: 0.341 µM; IC50 [3]: 0.466 µM; IC50 [4]: 0.000963 µM; IC50 [5]: 0.000545 µM; IC50 [6]: 0.634 nM

Q: Which IC50 [1] does the source give for `CC(=O)NC1CCN(c2nccc(-c3c[nH]c4ncccc34)n2)CC1` [Cpd 63, N-{1-[4-(1H-pyrrolo[2,3-b]pyridin-3-yl)-pyrimidin-2-yl]-piperidin-4-yl}acetamide] here?
A: 2.11 µM

Q: What about the IC50 [2] of the same compound?
A: 10 µM

Q: What about the IC50 [3] of the same compound?
A: 4.19 µM

Q: What about the IC50 [4] of the same compound?
A: 34.7 µM

Q: What about the IC50 [5] of the same compound?
A: 40 µM

Q: And the IC50 [6]?
A: 16400 nM

Q: What does the source list for `CC(=O)n1cc(-c2ccnc(NC3CCCCC3)n2)c2cccnc21` [Cpd 68, Cyclohexyl-[4-(1-acetyl-1H-pyrrolo[2,3-b]pyridin-3-yl)pyrimidin-2-yl]-amine]?
A: IC50 [1]: 0.0308 µM; IC50 [2]: 1 µM; IC50 [3]: 0.32 µM; IC50 [4]: 0.023 µM; IC50 [5]: 0.0129 µM; IC50 [6]: 31.7 nM

Q: What does the source list for `NC1CCC(Nc2nccc(-c3c[nH]c4ncccc34)n2)CC1` (mixture of isomers) [Cpd 43, (4-Aminocyclohexyl)-[4-(1H-pyrrolo[2,3-b]pyridin-3-yl)-pyrimidin-2-yl]-amine]?
A: IC50 [1]: 0.0066 µM; IC50 [2]: 2.78 µM; IC50 [3]: 0.262 µM; IC50 [4]: 0.00292 µM; IC50 [5]: 0.00297 µM; IC50 [6]: 2.42 nM

Q: What does the source list for `Cc1ccc(Nc2nccc(-c3c[nH]c4ncccc34)n2)c(C)c1` [Cpd 33, (2,4-Dimethylphenyl)-[4-(1H-pyrrolo[2,3-b]pyridin-3-yl)-pyrimidin-2-yl]-amine]?
A: IC50 [1]: 0.001 µM; IC50 [2]: 1.14 µM; IC50 [3]: 0.408 µM; IC50 [4]: 0.000993 µM; IC50 [5]: 0.000542 µM; IC50 [6]: 0.0467 nM

Q: With `c1cnc2[nH]cc(-c3ccnc(NCC4CCCCC4)n3)c2c1` [Cpd 16, Cyclohexylmethyl-[4-(1H-pyrrolo[2,3-b]pyridin-3-yl)-pyrimidin-2-yl]-amine] as the compound, how does the IC50 [1] read?
A: 0.151 µM

Q: And the IC50 [2]?
A: 10 µM

Q: And the IC50 [3]?
A: 0.636 µM

Q: And the IC50 [4]?
A: 0.368 µM

Q: And the IC50 [5]?
A: 0.41 µM

Q: And the IC50 [6]?
A: 604 nM

Q: How did the IC50 [1] turn out when `FC(F)(F)c1ccccc1Nc1nccc(-c2c[nH]c3ncccc23)n1` [Cpd 29, (2-trifluoromethylphenyl)-[4-(1H-pyrrolo[2,3-b]pyridin-3-yl)-pyrimidin-2-yl]-amine] was run?
A: 0.056 µM

Q: And the IC50 [2]?
A: 1.97 µM

Q: What about the IC50 [3] of the same compound?
A: 1 µM

Q: What about the IC50 [4] of the same compound?
A: 0.392 µM

Q: And the IC50 [5]?
A: 0.381 µM

Q: And the IC50 [6]?
A: 403 nM

Q: Which results are given for `c1cnc2[nH]cc(-c3ccnc(N[C@H]4CC5CCC4C5)n3)c2c1` (stereo partly drawn) [Cpd 59, (2S)-Bicyclo[2.2.1]hept-2-yl-[4-(1H-pyrrolo[2,3-b]pyridin-3-yl)-pyrimidin-2-yl]-amine]?
A: IC50 [1]: 0.062 µM; IC50 [2]: 0.55 µM; IC50 [3]: 0.437 µM; IC50 [4]: 0.291 µM; IC50 [5]: 0.379 µM; IC50 [6]: 251 nM

Q: Which results are given for `Cc1[nH]c2ncccc2c1-c1ccnc(N[C@H]2CC[C@H](N)CC2)n1` [Cpd 57, trans-N-[4-(2-Methyl-1H-pyrrolo[2,3-b]pyridin-3-yl)-pyrimidin-2-yl]-cyclohexane-1,4-diamine]?
A: IC50 [1]: 0.283 µM; IC50 [2]: 10 µM; IC50 [3]: 3.98 µM; IC50 [4]: 0.135 µM; IC50 [5]: 0.0732 µM; IC50 [6]: 97.3 nM

Q: `CNCC[C@H]1CC[C@H](Nc2nccc(-c3c[nH]c4ncccc34)n2)CC1` [Cpd 78, trans-[4-(2-Methylaminoethyl)-cyclohexyl]-[4-(1H-pyrrolo[2,3-b]pyridin-3-yl)-pyrimidin-2-yl]-amine] was tested. Which IC50 [1] did it give?
A: 0.00426 µM

Q: And the IC50 [2]?
A: 6.71 µM

Q: What about the IC50 [3] of the same compound?
A: 1.01 µM

Q: What about the IC50 [4] of the same compound?
A: 0.00374 µM

Q: What about the IC50 [5] of the same compound?
A: 0.00313 µM

Q: What about the IC50 [6] of the same compound?
A: 2.25 nM

Q: With `OCC[C@H]1CC[C@H](Nc2nccc(-c3c[nH]c4ncccc34)n2)CC1` [Cpd 77, trans-2-{4-[4-(1H-pyrrolo[2,3-b]pyridin-3-yl]-pyrimidin-2-ylamino]-cyclohexyl}-ethanol] as the compound, how does the IC50 [1] read?
A: 0.0028 µM

Q: What about the IC50 [2] of the same compound?
A: 3.57 µM

Q: And the IC50 [3]?
A: 0.374 µM

Q: And the IC50 [4]?
A: 0.00598 µM

Q: And the IC50 [5]?
A: 0.00762 µM

Q: And the IC50 [6]?
A: 6.16 nM

Q: Which IC50 [1] does the source give for `CCc1ccccc1Nc1nccc(-c2c[nH]c3ncccc23)n1` [Cpd 32, (2-Ethylphenyl)-[4-(1H-pyrrolo[2,3-b]pyridin-3-yl)-pyrimidin-2-yl]-amine] here?
A: 0.068 µM

Q: What about the IC50 [2] of the same compound?
A: 1.47 µM

Q: What about the IC50 [3] of the same compound?
A: 0.396 µM

Q: What about the IC50 [4] of the same compound?
A: 0.292 µM

Q: What about the IC50 [5] of the same compound?
A: 0.254 µM

Q: What about the IC50 [6] of the same compound?
A: 217 nM
